The text below walks through data of paper PMC3277864 (Molecular Pharmaceutics, 2011).

Where a SMILES comes first, the peptide text is derived from it. [ ]: non-standard residue; d: D form. The star is where a group is joined. Dolaproine = CO[C@@H]([C@@H]1CCCN1)[C@@H](C)C(=O)O; Dil = CC[C@H](C)[C@H](NC)[C@@H](CC(=O)O)OC; X1 = C[C@@H](N*)[C@@H](O)c1ccccc1; NMeV = CN[C@H](C(=O)O)C(C)C

One data set relates to BALB/c mice. As to the kind of experiment: Gross toxicity of mice. Type of data set: in vivo, mouse.
The next data set has as its system HEK-293L cells. As to the kind of experiment: Cytotoxicity assay. The note with it: 48 hrs incubation. It is filed as cell-based, human.
Data set [1] concerns MDA-MB-435 cells. As to the kind of experiment: Cytotoxicity assay. Conditions: 48 hrs incubation. Type of data set: cell-based, human.
Another data set concerns 4T1 mammary carcinoma. The note with it: murine breast cancer 4T1 model, 0.5 mg/kg; cited from earlier work.
For data set [2], the system named is MDA-MB-435 cells. Conditions: 72 hrs incubation period; cited from earlier work.

For the molecule `CC[C@H](C)[C@@H]([C@@H](CC(=O)N1CCC[C@H]1[C@H](OC)[C@@H](C)C(=O)N[C@H](C)[C@@H](O)c1ccccc1)OC)N(C)C(=O)[C@@H](NC(=O)[C@@H](NC)C(C)C)C(C)C` [MMAE, 1, monomethylauristatin E] (H-[NMeV]V[Dil][Dolaproine]-X1), the “Dose beyond which found considerably toxic to mice” value in the data set on BALB/c mice came out at 0.1 mg/kg. Besides, the “Death (%)” value with BALB/c mice (i.p. 5x, dose 0.1 mg/kg) was 20%; in the data set on BALB/c mice (i.p. 5x, dose 0.5 mg/kg) it was 100%; in the data set on BALB/c mice (i.p. 5x, dose 1.5 mg/kg), 100%. Moreover, the “Wt. loss (%)” value with BALB/c mice (i.p. 5x, dose 0.1 mg/kg, weighed for 3 weeks) stood at 33.4%. Also, the “In vitro cytotoxicity (comparison in words)” value in the data set with HEK-293L cells was “more potent than the prodrugs 3 and 8”; with MDA-MB-435 cells [1] it was “more potent than the prodrugs 3 and 8”. Besides, the “Animal death in 4T1 study” value with 4T1 mammary carcinoma is listed as “all animals died”. Moreover, the “Activities to MDA-MB-435 cells” value with MDA-MB-435 cells [2] is “subnanomolar to low nanomolar activities”.
